Results: BindingDB's records for doi:10.7270/Q2V40SNS (Nmmlsc, 2009)

Target: Ras-related protein Rab-2A (Canis lupus familiaris, UniProt P61105)
Test: Rab2 wildtype GTP-binding inhibitors, SAR follow-up, biochemical, additional analogs, bead-based flow cytometry, multiplex (AID 2046)
[1] = inactive by the depositor's call

Chain of Ras-related protein Rab-2A (P61105 whole entry): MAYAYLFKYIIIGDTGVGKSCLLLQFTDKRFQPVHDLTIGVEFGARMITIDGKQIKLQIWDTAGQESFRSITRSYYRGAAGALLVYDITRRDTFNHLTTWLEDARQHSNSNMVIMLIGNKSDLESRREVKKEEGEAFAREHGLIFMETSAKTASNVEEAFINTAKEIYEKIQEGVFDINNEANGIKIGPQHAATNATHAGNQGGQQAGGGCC

| EC50 | EC50 [1] | SMILES |
| --- | --- | --- |
| 30 µM | – | C[C@@H](C(=O)O)c1cccc(Oc2ccccc2)c1 [calcium;2-(3-phenoxyphenyl)propanoic acid;hydrate] |
| – | 30 µM | O=C(C#Cc1ccccc1)c1ccccc1 [UNM-0000306039] |
| 30 µM | – | O=C1Nc2c(Br)cccc2C1=C1Nc2ccccc2C1=O |
| 30 µM | – | O=C1Nc2ccccc2/C1=C1/Nc2ccccc2C1=O [2-[(3Z)-2-oxo-2,3-dihydro-1H-indol-3-ylidene]-2,3-dihydro-1H-indol-3-one] |
| – | 30 µM | COc1ccc(S(=O)(=O)n2c(N)c(C#N)c(-c3ccccc3)c2C(=O)c2ccc(Br)cc2)cc1 |
| – | 30 µM | COc1ccc(S(=O)(=O)n2c(N)c(C#N)c(-c3cncc(Br)c3)c2C(=O)c2ccccc2)cc1 [2-amino-5-benzoyl-4-(5-bromo-3-pyridinyl)-1-(4-methoxyphenyl)sulfonyl-3-pyrrolecarbonitrile] |
| – | 30 µM | O=C1Nc2cccc(Br)c2/C1=C1/Cc2ccccc2C1=O |
| – | 30 µM | CCCCS(=O)(=O)n1c(N)c(C#N)c(-c2cc(OC)c(OC)c(OC)c2)c1C(=O)c1ccccc1 [2-amino-5-benzoyl-1-butylsulfonyl-4-(3,4,5-trimethoxyphenyl)-3-pyrrolecarbonitrile] |
| 30 µM | – | O=C1NC(=O)/C(=C2/C(=O)Nc3ccccc32)N1 |
| – | 30 µM | O=C(C#Cc1ccccc1)c1ccc(OC(F)(F)F)cc1 |
| – | 30 µM | N#Cc1c(-c2ccc(Cl)cc2)c(C(=O)c2ccccc2)n(S(=O)(=O)c2ccc([N+](=O)[O-])cc2)c1N [UNM-0000305780] |
| – | 30 µM | COc1cc(-c2c(C#N)c(N)n(S(=O)(=O)c3c(C(C)C)cc(C(C)C)cc3C(C)C)c2C(=O)c2ccccc2)cc(OC)c1OC [2-azanyl-5-(phenylcarbonyl)-4-(3,4,5-trimethoxyphenyl)-1-[2,4,6-tri(propan-2-yl)phenyl]sulfonyl-pyrrole-3-carbonitrile] |
| – | 30 µM | CSc1ccc(/C=C2/C(C)=C(CC(=O)O)c3cc(F)ccc32)cc1 [{6-Fluoro-2-methyl-3-[1-(4-methylsulfanyl-phenyl)-meth-(E)-ylidene]-3H-inden-1-yl}-acetic acid] |
| – | 30 µM | O=C(C#Cc1ccccc1)c1cccnc1 [3-phenyl-1-pyridin-3-ylprop-2-yn-1-one] |
| – | 30 µM | O=C1Nc2c(Br)cccc2/C1=C1/Cc2ccccc2C1=O [(3E)-7-bromo-3-(3-oxo-1H-inden-2-ylidene)-1H-indol-2-one] |
| – | 30 µM | COc1ccc2cc(CC(=O)O)ccc2c1 [2-(6-methoxynaphthalen-2-yl)ethanoic acid] |
| – | 30 µM | O=C1Nc2ccccc2/C1=C1/Cc2ccccc2C1=O [UNM-0000305763] |
| 30 µM | – | O=C1N=c2ccccc2=C1c1[nH]c2ccccc2c1NO [3-[3-(hydroxyamino)-1H-indol-2-yl]-2-indolone] |
| 30 µM | – | O=C1Nc2c(Cl)cccc2C1=C1Nc2ccccc2C1=O |
| 30 µM | – | O=C1N=c2c(Cl)cccc2=C1c1[nH]c2ccccc2c1NO [7-chloro-3-[3-(hydroxyamino)-1H-indol-2-yl]-2-indolone] |
| – | 30 µM | CC1=C(CC(=O)O)c2cc(F)ccc2/C1=C/c1ccc([S+](C)[O-])cc1 (configuration not stated) [UNM-0000306136] |

| EC50 | EC50 [1] | SMILES |
| --- | --- | --- |
| – | 30 µM | COc1ccc(S(=O)(=O)n2c(N)c(C#N)c(-c3cc(Br)c(OC)c(OC)c3)c2C(=O)c2ccccc2)cc1 [UNM-0000305782] |
| 30 µM | – | O=C1Nc2ccc(Br)cc2C1=C1Nc2ccccc2C1=O |
| – | 30 µM | COC(=O)c1ccc(C(=O)C#Cc2ccccc2)cc1 [4-(1-oxo-3-phenylprop-2-ynyl)benzoic acid methyl ester] |
| – | 30 µM | O=C(C#Cc1ccccc1)c1ccc([N+](=O)[O-])cc1 [1-(4-nitrophenyl)-3-phenyl-2-propyn-1-one] |
| – | 30 µM | COc1ccc(-c2c(C#N)c(N)n(S(C)(=O)=O)c2C(=O)c2ccccc2)cc1Br [2-azanyl-4-(3-bromanyl-4-methoxy-phenyl)-1-methylsulfonyl-5-(phenylcarbonyl)pyrrole-3-carbonitrile] |
| – | 30 µM | O=C(C#Cc1ccccc1)c1ccccc1[N+](=O)[O-] [UNM-0000306038] |
| 65.8 µM | – | O=C1N=c2c(Br)cccc2=C1c1[nH]c2ccccc2c1NO [7-bromanyl-3-[3-(oxidanylamino)-1H-indol-2-yl]indol-2-one] |
| 1.74 µM | – | COc1ccc2cc([C@@H](C)C(=O)O)ccc2c1 [sodium;(2R)-2-(6-methoxy-2-naphthalenyl)propanoate] |
| 30 µM | – | O=C1Nc2c(F)cccc2C1=C1Nc2ccccc2C1=O |
| – | 30 µM | O=[N+]([O-])c1ccc(C#Cc2ccccc2)cc1 |
| – | 30 µM | CC(C(=O)O)c1cccc(C(=O)c2ccccc2)c1 (configuration not stated) [2-(3-benzoylphenyl)propanoic acid] |
| – | 30 µM | CC(C)Cc1ccc([C@H](C)C(=O)O)cc1 [(S)-2-(4-Isobutyl-phenyl)-propionic acid] |
| 65.2 µM | – | O=C1N=c2ccc(Br)cc2=C1c1[nH]c2ccccc2c1NO [5-bromanyl-3-[3-(oxidanylamino)-1H-indol-2-yl]indol-2-one] |
| 30 µM | – | COc1ccc2cc([C@H](C)C(=O)O)ccc2c1 [UNM-0000306098] |
| – | 30 µM | CC(=O)Oc1ccccc1C(=O)O [2-(acetyloxy)benzoic acid] |
| – | 30 µM | N#Cc1ccc(C(=O)C#Cc2ccccc2)cc1 [4-(3-phenylprop-2-ynoyl)benzenecarbonitrile] |
| – | 30 µM | O=C(C#Cc1ccccc1)c1ccc(Cl)cc1 [UNM-0000306055] |
| – | 30 µM | O=C(C#Cc1ccccc1)c1ccc(F)cc1 [UNM-0000306059] |
| – | 30 µM | COc1ccc(C(=O)C#Cc2ccccc2)cc1 [1-(4-methoxyphenyl)-3-phenyl-2-propyn-1-one] |
| 30 µM | – | O=C1NC(=S)N/C1=C1\C(=O)Nc2ccccc21 [(3Z)-3-(5-oxo-2-sulfanylideneimidazolidin-4-ylidene)-1H-indol-2-one] |
| 30 µM | – | O=C1N=c2c(F)cccc2=C1c1[nH]c2ccccc2c1NO [7-fluoro-3-[3-(hydroxyamino)-1H-indol-2-yl]-2-indolone] |
